# Values of other authors in patent US6660871B2, “Synthesis of 4H-chromene derivatives” (Thomas Jefferson Unversity, priority 2001, dated 2003).
# Tested on: tumor cells
smiles,measurement,value
CCOC(=O)C1=C(N)Oc2ccc(Br)cc2C1C(C#N)C(=O)OCC (stereo not shown) [HA14-1],apoptosis of tumor cells,induces apoptosis of tumor cells
